Assays:
[1] = system: MDA-MB-468; details: for GI50: MDA-MB-468, Breast Cancer
[2] = system: HCT-116; details: for GI50: HCT-116, Colon Cancer
[3] = system: MDA-MB-435; details: for GI50: MDA-MB-435, Melanoma
[4] = system: T-47D; details: for GI50: T-47D, Breast Cancer
[5] = system: M14; details: for GI50: M14, Melanoma
[6] = system: MOLT-4; details: for GI50: MOLT-4, Leukemia
[7] = system: SNB-75; details: for GI50: SNB-75, CNS Cancer
[8] = system: MALME-3M; details: for GI50: MALME-3M, Melanoma
[9] = system: BT-549; details: for GI50: BT-549, Breast Cancer
[10] = system: CCRF-CEM; details: for GI50: CCRF-CEM, Leukemia
[11] = system: UO-31; details: for GI50: UO-31, Renal Cancer
[12] = system: SK-MEL-28; details: for GI50: SK-MEL-28, Melanoma
[13] = system: KM12; details: for GI50: KM12, Colon Cancer
[14] = system: NCI/ADR-RES; details: for GI50: NCI/ADR-RES, Ovarian Cancer
[15] = system: NCI-H23; details: for GI50: NCI-H23, Lung Cancer
[16] = system: K-562; details: for GI50: K-562, Leukemia
[17] = system: PC-3; details: for GI50: PC-3, Prostate Cancer
[18] = system: Xenopus oocytes; assay: Xenopus oocyte maturation assay; assay type: cell-based; details: for Xenopus Oocyte Maturation Assay, Without Progesterone: no progesterone, activator = able to induce GVBD in the absence of added progesterone; for Xenopus Oocyte Maturation Assay, With Progesterone: test compound 100 μM, progesterone 2 μg/mL, inhibitor = slowed rate of progesterone-dependent GVBD by 20% or more
Text: An in vivo Xenopus oocyte maturation assay was used to screen the compounds for their ability to modulate the activity of cell cycle control proteins, mRNA translational control proteins, and/or proteins involved in signaling pathways. In this assay, oocyte maturation (or cell cycle progression) is monitored phenotypically using an image capture system. Oocyte maturation is correlated with the appearance of a white spot at the animal pole of the darkly pigmented animal hemisphere of the oocyte. The white spot appears because the germinal vesicle (i.e., the large nucleus of the oocyte) migrates to the animal pole prior to meiotic germinal vesicle breakdown (GVBD).
Immature stage VI Xenopus oocytes were transferred to wells of a flat bottom 96-well plate containing about 178 μL of L15 culture media. The oocytes were transferred using wide mouth 200 μL pipette tips with minimal transfer of culture medium (e.g., about 20 μL). Generally, the oocytes oriented with the pigmented animal hemisphere facing up due to the higher density of the yolk-containing vegetal hemisphere. Incorrectly orientated oocytes were gently manipulated using a drawn-out capillary tube to rotate them into the correct orientation.
Forty-four test compounds were dissolved in DMSO to make 100× stock solutions. The test compounds were added to the appropriate wells at a final concentration of 100 μM (and 1% DMSO). Control oocytes were exposed to 1% DMSO only (generally the first and last wells of a plate contained the untreated, control oocytes). Sixteen hours later, progesterone was added to each well to stimulate progesterone-dependent oocyte maturation. For this, 2 μL of 1000× stock solution (2 mg/mL in ethanol) was added to the appropriate wells to yield a final concentration of 2 μg/mL. The rate of maturation in the control oocytes (i.e., those in the first and last wells) served as an intra-assay control for time taken for progesterone addition across the multi-well plate.
The 96-well plate was imaged from above (i.e., top-down) using a 36-megapixel Nikon D800 SLR camera with an AF Micro Nikkor 60 mm, f/2.8 lens, mounted on a dedicated copy stand (with adjustable flanking light sources). The plate was imaged prior to and after addition of progesterone (i.e., images were taken at regular intervals over a period of 7 hours). The high resolution images were digitally zoomed after capture to analyze the maturation status of oocytes in individual wells of the plate. Test compounds that slowed the rate of progesterone-dependent GVBD by 20% or more were classified as inhibitors (assessed relative to the time 50% of the population of control, vehicle treated oocytes had undergone GVBD (GVBD50)).
To determine whether the test compounds were able to activate oocyte maturation in a progesterone-independent manner, oocytes were incubated in the presence of the test compound (dissolved in DMSO) or DMSO only. The oocytes were imaged at regular intervals for the evidence of GVBD, or subsets of oocytes were removed at predetermined times and the activation status of key cell cycle control proteins (e.g., pMAP kinase, pCcd2, etc.) was analyzed by Western blotting. For example, activation of pMAP kinase is associated with increased phosphorylation whereas activation of pCdc2 is associated with decreased phosphorylation. Compounds were classified as an activator if they were able to induce GVBD in the absence of added progesterone. Further, compounds were classified as accelerators if they accelerated the rate of progesterone-stimulated GVBD, but were unable to induce GVBD in the absence of progesterone. The criteria for test compounds to be considered accelerators is that they must increase the rate of progesterone-dependent GVBD by 20% or more at one dose (assessed relative to the time 50% of the population of control, vehicle treated oocytes had undergone GVBD (GVBD50)).

[19] = system: OVCAR-3; details: for GI50: OVCAR-3, Ovarian Cancer
[20] = system: SNB-19; details: for GI50: SNB-19, CNS Cancer
[21] = system: NCI-H460; details: for GI50: NCI-H460, Lung Cancer
[22] = system: HL-60(TB); details: for GI50: Leukemia
[23] = system: HS 578T; details: for GI50: HS 578T, Breast Cancer

## 13-(2-iodoimidazole)parthenolide [PNR-5-65]
[1]
  CC50: 60.4 µM
  GI50: 11.1 µM
[2]
  CC50: 49 µM
  GI50: 11.8 µM
[3]
  CC50: 59.5 µM
  GI50: 13.8 µM
[4]
  CC50: 54.3 µM
  GI50: 9.88 µM
[5]
  CC50: 65.6 µM
  GI50: 16.5 µM
[6]
  CC50: 97.9 µM
  GI50: 19.6 µM
[7]
  CC50: > 100 µM
  GI50: 19.3 µM
[8]
  CC50: 62.7 µM
  GI50: 10.9 µM
[9]
  CC50: 55.3 µM
  GI50: 15.9 µM
[10]
  CC50: 79.6 µM
  GI50: 6.13 µM
[11]
  CC50: 50 µM
  GI50: 10.8 µM
[12]
  CC50: 73 µM
  GI50: 16.1 µM
[13]
  CC50: > 100 µM
  GI50: 43.2 µM
[14]
  CC50: > 100 µM
  GI50: 31.2 µM
[15]
  CC50: > 100 µM
  GI50: 23.7 µM
[16]
  CC50: 90 µM
  GI50: 7.36 µM
[17]
  CC50: > 100 µM
  GI50: 23.1 µM
[18]
  Xenopus Oocyte Maturation Assay, Without Progesterone: Not an activator or inhibitor
  Xenopus Oocyte Maturation Assay, With Progesterone: Not an activator or inhibitor
[19]
  CC50: 50.8 µM
  GI50: 6.85 µM
[20]
  CC50: > 100 µM
  GI50: > 100 µM
[21]
  CC50: > 100 µM
  GI50: 30.1 µM
[22]
  GI50: 6.9 µM
[23]
  CC50: > 100 µM
  GI50: 21.3 µM

## (E)-13-(3-thiopheno)parthenolide [PNR-5-53]
[1]
  CC50: > 100 µM
  GI50: 17.7 µM
[2]
  CC50: > 100 µM
  GI50: 28.3 µM
[3]
  CC50: > 100 µM
  GI50: 18.3 µM
[4]
  CC50: > 100 µM
  GI50: 29.5 µM
[5]
  CC50: > 100 µM
  GI50: 20.5 µM
[6]
  CC50: > 100 µM
  GI50: 25.7 µM
[7]
  CC50: > 100 µM
  GI50: 21.5 µM
[8]
  CC50: > 100 µM
  GI50: 22.5 µM
[9]
  CC50: 88.2 µM
  GI50: 20.1 µM
[10]
  CC50: > 100 µM
  GI50: 19.1 µM
[11]
  CC50: > 100 µM
  GI50: 27.3 µM
[12]
  CC50: > 100 µM
  GI50: 29.4 µM
[13]
  CC50: 86.7 µM
  GI50: 20.4 µM
[14]
  CC50: > 100 µM
  GI50: 23.6 µM
[15]
  CC50: > 100 µM
  GI50: 23 µM
[16]
  CC50: > 100 µM
  GI50: 25.2 µM
[17]
  CC50: > 100 µM
  GI50: 22.7 µM
[18]
  Xenopus Oocyte Maturation Assay, Without Progesterone: Not an activator or inhibitor
  Xenopus Oocyte Maturation Assay, With Progesterone: Not an activator or inhibitor
[19]
  CC50: > 100 µM
  GI50: 20.5 µM
[20]
  CC50: > 100 µM
  GI50: 47.6 µM
[21]
  CC50: > 100 µM
  GI50: 29.3 µM
[22]
  GI50: 21.7 µM
[22]; read-out: LC50, Leukemia
  CC50: 99.9 µM
[23]
  CC50: > 100 µM
  GI50: 21.5 µM

Source: patent US20160083397A1, “PARTHENOLIDE DERIVATIVES AND THEIR MODULATION OF PROCESSES CONTROLLED BY REGULATED TRANSLATION” (THE BOARD OF TRUSTEES OF THE UNIVERSITY OF ARKANSAS, priority 2013, published 2016)
